Assay results from US20090054507A1, “CONTROL OF MALIGNANT CELLS BY KINASE INHIBITION” (CLEVELAND STATE UNIVERSITY, priority 2006, published 2009).
“Also recorded” adds a separate entry of the source.

Tests used:
MEG-01 cells = assay: Annexin V-FITC and PI apoptosis assay, MEG-01; assay type: cell-based, human
Experimental: Flow cytometric analysis. Cells were analyzed using a FACSCalibur flow cytofluorometer (Becton-Dickinson), with CellQuestPro ver. 3.3 software. The data was further analyzed with FlowJo ver. 6.2, and WinMDI 2.8 software. Proper gating was performed to characterize each cell population (MEG-01 cells and platelets). The population that corresponds to platelets (small, granulated particles), is PI negative because thrombocytes are anucleated cells (only the viable cells were considered) and were distinguished by their capacity to become activated, undergoing shape change in response to agonist and to show phosphatidylserine (PS) exposure when activated. Platelets were further separated from the megakaryocytic cells, by differential centrifugation, considering the size difference between these cell populations (1-5 μm for platelets and 35-150 μm for megakaryocytic cell line MEG-01) and analyzed separately. Voltage and channels settings were adjusted accordingly. Analyzed values were obtained with WinMDI ver. 2.8.
(§1) Apoptosis Assays using Flow Cytometry with Annexin V-FITC and propidium iodide (PI). For induction of typical apoptosis, cells were grown in the presence of 1 μM staurosporine (Sigma-Aldrich) for 6 hours. The staurosporine treated cells were stained as follows: control 1 with PI, control 2 with Annexin V-FITC and control 3 both PI and Annexin V-FITC in order to have the brightest controls for compensation and proper collection of the flow cytometry data. Cell necrosis was induced by heat shock (65° C. for 30 minutes). The stained control, both PI and Annexin V-FITC labeled, was then used as the reference in establishing the level of apoptosis induced by the treatments. Data was collected on logarithmic modes, two-colors. Annexin V-FITC corresponds to FL1 H channel, and PI to FL3H or FL2H channels.
(§2) Annexin V-FITC and PI apoptosis assay staining protocol. Apoptosis Annexin V-FITC and PI kit from BD Biosciences, CA, USA, was used. 10^5-10^6 cells were stained with 50 μg/ml PI and with 0.5 μg/ml FITC-labeled Annexin V using the staining protocol provided by the supplier. Samples were then analyzed immediately by flow cytometry.

MEG-01 xenografts = assay: Blood counts in MEG-01 xenograft mice; assay type: in vivo
Experimental: At the end of the trial, tail-bleeding times assay was performed and blood was collected for blood counts from live and anesthetized mice. After these experiments were completed mice were sacrificed and tumors and organs were collected. Samples were fixed in formalin for further processing.
Mice blood collection and blood counts. Blood counts are dependent upon the method and time of blood collection. Whole blood was collected from the retro-orbital sinus (under the eye) of anesthesiated mice (both DMSO treated and DMAT treated batch). EDTA and prostaglandin E1 (PGE1) were used at collection to prevent clotting during blood collection. 500 μl mice whole blood with 100 μl anticoagulant were used for counting (a 1:5 dilution). A hematological analyzer was used for this. Samples were compared (gated) with normal mice (C57BL strain).

SW-480 cells = assay: Proliferation assay in vitro, SW-480; assay type: cell-based, human; conditions: four days
Source text: Viability (proliferation) assay, Trypan blue exclusion. Cells were counted using a Neubauer hemacytometer.

WM-164 cells = assay: Annexin V apoptosis/necrosis assay, WM-164; assay type: cell-based, human
Experimental: as §1, §2

tumors of ACHN cells = assay: Murine xenograft of ACHN cells, tumor volume; assay type: in vivo, mice; conditions: DMAT at effective dosage levels (in DMSO) per animal per day, 59 days
Experimental: FIG. 94 illustrates the effect of administration of DMAT as compared to a control over a period of 59 days. FIG. 94 is a graph of a murine xenograft treated with DMAT, compared to a control. Mice with tumors of ACHN cells were treated with DMAT at effective dosage levels (in DMSO) per animal per day. The daily animal weight was averaged at 32.5 g at the start of treatment. Tumors were measured daily and tumor volumes were calculated based upon a prolate spheroid model. FIG. 94 illustrates the significant benefits of treatment with DMAT (circles) as compared to the control (squares). […] The differences in tumor volume between control cells and those treated with DMAT, as described herein, are striking.

tumors of HT1376 cells = assay: Murine xenograft of HT1376 cells, tumor volume; assay type: in vivo, mice; conditions: DMAT at effective dosage levels (in DMSO) per animal per day, 36 days
Experimental: FIG. 95 illustrates the effect of administration of DMAT s compared to a control over a time period of 36 days. FIG. 95 is a graph of a murine xenograft treated with DMAT, compared to a control. Mice with tumors of HT1376 cells were treated with DMAT at effective dosage levels (in DMSO) per animal per day. The daily animal weight was averaged at 32.5 g at the start of treatment. Tumors were measured daily and tumor volumes were calculated based upon a prolate spheroid model. FIG. 95 illustrates the significant benefits of treatment with DMAT (circles) as compared to the control (squares). Although the tumor size increased for HT1376 cells treated with DMAT, the tumor volume remained approximately one-half of the size as that associated with the untreated HT1376 cells.

For `CN(C)c1nc2c(Br)c(Br)c(Br)c(Br)c2[nH]1` [DMAT, 2-dimethylamino-4,5,6,7-tetrabromo-1H-benzimidazole], which “cytotoxicity (necrosis) in MEG-01 cells” value (MEG-01 cells) is on record?
The value was “without being cytotoxic”.

And the “level of necrotic cells” value (MEG-01 cells; 20 μM DMAT, 24 hours, control untreated 0.87%)?
The value was 0.39%.

And the “level of apoptotic cells” value (MEG-01 cells; 20 μM DMAT, 24 hours, control untreated 8.7%)?
The value was 19%.

And the “dose and time dependence of induced apoptosis and phenotype change” value (MEG-01 cells; 24 to 96 hours)?
The value was “dose and time dependent”.

What about the platelet counts (MEG-01 xenografts; DMAT 50 μl/day of 125 mg, compared to a control) of the same compound?
Its platelet counts is “increase in platelet counts”.

And the “percentage of abnormal cells in blood counts” value (MEG-01 xenografts; DMAT treated vs DMSO control)?
The value was “the control has higher percentages of abnormal cells”.

What about the cell counts (SW-480 cells; 10 μM DMAT) of the same compound?
The cell counts was “cell counts between the control and the SW-480 cells treated with 20 μM”.

What about the “cell counts / proliferation” value (SW-480 cells; 20 μM DMAT) of the same compound?
The value was “lowest cell counts; also recorded: proliferation arrest”.

And the “level of necrotic cells” value (WM-164 cells; 10 μM DMAT, 24 hours, control 4.8%)?
The value was 2.0%.

And the “level of apoptotic cells” value (WM-164 cells; 10 μM DMAT, 24 hours, control 16.9%)?
Its value is 36.8%.

What about the “level of apoptic cells” value (WM-164 cells; 20 μM DMAT) of the same compound?
The value was 26.8%.

What about the “level of necrotic cells” value (WM-164 cells; 20 μM DMAT) of the same compound?
Its value is 4.1%.

What about the tumor volume (tumors of ACHN cells) of the same compound?
Its tumor volume is “proliferation arrest in vivo for large tumors and tumor ablation in small tumors”.

What about the “tumor volume relative to untreated HT1376 cells” value (tumors of HT1376 cells) of the same compound?
The value was “approximately one-half”.
